Assay results as given in PMC10514136, “Peptide-conjugated antimiRs improve myotonic dystrophy type 1 phenotypes by promoting endogenous MBNL1 expression” (Molecular Therapy. Nucleic Acids, 2023).

Tested on: HSALR mice
Test: Electromyography, myotonia grade
Assay type: in vivo, mouse
Details: 9.2 mg/kg (mean) i.v. every 2 weeks x3, 5-point scale, quadriceps of both hind limbs
Source text: Mouse handling and experimental procedures followed the European law regarding laboratory animal care and experimentation (2003/65/C.E.) and were approved by Conselleria de Agricultura, […] (reference no. A1539961490857). We used homozygous transgenic HSA^LR (line 20 b) mice,[90] which were kindly provided by Dr Thornton (Rochester, NY) and were housed and bred in our animal facility. […] The mice were randomly allocated to the different treatments as follows: in each cage, each mouse was ear-marked as it was taken out, and each mouse was then assigned to a different treatment. Animals were injected biweekly intravenously with 150 μL of 1× PBS vehicle (controls; […] Mice were sacrificed 45 days after the first injection and the tissues of interest were frozen in liquid nitrogen for the molecular and histological assays. All the mice used in this study ranged from 5 to 5.5 months of age and all were males. Electromyography was performed before the treatment, at the halfway point and time of sacrifice under general anesthesia, as described previously.[18] The determination was performed blindly to eliminate bias.

With “TCTTACCTCAGTTACAATTTA-Pip9b2 [Scramble, reference compound]” the “myotonia (electromyography), change at day 45” value was “myotonia remained unchanged”.
